How the values were obtained:
Assay in all cases: relative viability (nuclei count vs DMSO), 5 days (fraction); higher = more cells survive
[1] = compound: CC1=C(C=C(C=C1)NC(=O)C2=CC(=CC=C2)C(C)(C)C#N)NC3=CC4=C(C=C3)N=CN(C4=O)C [AZ628] + CC(C)C[C@H](NC(=O)[C@H](Cc1ccccc1)NC(=O)c1cnccn1)B(O)O [Bortezomib] (partner 0.002 µM)
Outline: (§1)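 Medians of duplicate plates are given as relative viability. That measure is the nuclei count in treated wells divided by the count in vehicle wells. Counts were taken on 4× images of lung cancer cell lines in 1536-well plates, 5 days after pin-tool dosing the day after seeding with one drug alone or a fixed anchor-drug dose plus five library-drug doses (not always all listed) in √10 steps.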

[2] = compound: CC1=C(C=C(C=C1)NC(=O)C2=CC(=CC=C2)C(C)(C)C#N)NC3=CC4=C(C=C3)N=CN(C4=O)C [AZ628] + Cc1cc(Nc2cc(N3CCN(C)CC3)nc(Sc3ccc(NC(=O)C4CC4)cc3)n2)n[nH]1 [Tozasertib] (partner 0.1 µM)
Outline: as §1

[3] = compound: C[As](C)SC[C@H](NC(=O)CC[C@H](N)C(=O)O)C(=O)NCC(=O)O [Darinaparsin] + CC1(C)CCC(c2ccc(Cl)cc2)=C(CN2CCN(c3ccc(C(=O)NS(=O)(=O)c4ccc(N[C@H](CCN5CCOCC5)CSc5ccccc5)c(S(=O)(=O)C(F)(F)F)c4)cc3)CC2)C1 [Navitoclax] (partner 0.5 µM)
Outline: as §1

[4] = compound: C[As](C)SC[C@H](NC(=O)CC[C@H](N)C(=O)O)C(=O)NCC(=O)O [Darinaparsin] + Nc1nc2[nH]cc(CCc3ccc(C(=O)N[C@@H](CCC(=O)O)C(=O)O)cc3)c2c(=O)[nH]1 [Pemetrexed] (partner 0.2 µM)
Outline: as §1

Row | Cell Line | relative viability ([1]; first compound 0.08 µM) | relative viability ([1]; first compound 0.253 µM) | relative viability ([1]; first compound 0.8 µM) | relative viability ([1]; first compound 2.53 µM) | relative viability ([1]; first compound 8 µM) | relative viability ([2]; first compound 0.08 µM) | relative viability ([2]; first compound 0.253 µM) | relative viability ([2]; first compound 0.8 µM) | relative viability ([2]; first compound 2.53 µM) | relative viability ([2]; first compound 8 µM) | relative viability ([3]; first compound 0.08 µM) | relative viability ([3]; first compound 0.8 µM) | relative viability ([3]; first compound 2.53 µM) | relative viability ([3]; first compound 8 µM) | relative viability ([4]; first compound 0.08 µM) | relative viability ([4]; first compound 0.8 µM) | relative viability ([4]; first compound 2.53 µM) | relative viability ([4]; first compound 8 µM)
1 | NCI-H322M | 1.36 | 1.46 | 1.28 | 1.38 | 1.11 | 0.468 | 0.497 | 0.459 | 0.474 | 0.404 | 1.25 | 1.17 | 1.13 | 1.33 | 0.695 | 0.582 | 0.589 | 0.618
2 | NCI-H1755 | 0.947 | 0.878 | 0.909 | 0.942 | 0.818 | 0.595 | 0.52 | 0.532 | 0.525 | 0.493 | 1.08 | 0.967 | 0.941 | 1.2 | 0.552 | 0.389 | 0.411 | 0.656
3 | LU99A | 1.15 | 1.21 | 1.31 | 1.07 | 0.451 | 0.272 | 0.242 | 0.265 | 0.231 | 0.257 | 0.77 | 0.886 | 0.777 | 0.944 | 0.19 | 0.161 | 0.384 | 0.194
4 | EBC-1 | 0.636 | 0.605 | 0.642 | 0.685 | 0.472 | – | – | – | – | – | 0.4 | 0.351 | 0.375 | 0.352 | – | – | – | –
5 | NCI-H1623 | – | – | – | – | – | 0.528 | 0.388 | 0.406 | 0.381 | 0.307 | – | – | – | – | – | – | – | –
6 | NCI-H2170 | – | – | – | – | – | 0.823 | 0.741 | 0.693 | 0.852 | 0.667 | 0.615 | 0.524 | 0.559 | 0.69 | 0.32 | 0.267 | 0.389 | 0.287
7 | NCI-H1703 | 0.266 | 0.207 | 0.203 | 0.166 | 0.224 | – | – | – | – | – | 1.63 | 1.27 | 1.32 | 0.926 | – | – | – | –
8 | NCI-H1563 | 0.898 | 0.856 | 0.894 | 0.855 | 0.95 | – | – | – | – | – | – | – | – | – | 0.761 | 0.765 | 0.669 | 0.866
9 | NCI-H650 | 1.2 | 1.05 | 1.32 | 0.744 | 1.02 | 0.855 | 0.713 | 0.722 | 0.789 | 0.446 | – | – | – | – | 0.947 | 0.835 | 0.959 | 1.02
10 | LK-2 | – | – | – | – | – | 0.166 | 0.167 | 0.17 | 0.173 | 0.165 | 0.968 | 0.709 | 0.746 | 1.07 | 0.24 | – | 0.286 | 0.329
11 | NCI-H661 | 0.823 | 0.805 | 0.684 | 0.699 | 0.562 | 0.365 | 0.409 | 0.365 | 0.376 | 0.42 | – | – | – | – | 0.915 | 0.922 | 0.921 | 1.02
12 | NCI-H727 | 0.604 | 0.487 | 0.389 | 0.42 | 0.295 | 0.551 | 0.316 | 0.32 | 0.404 | 0.274 | 0.405 | 0.447 | 0.472 | 0.393 | – | – | – | –
13 | Calu-6 | 1.03 | 0.943 | 0.61 | 0.792 | 0.244 | – | – | – | – | – | 1.13 | 0.921 | 0.752 | 0.745 | – | – | – | –
14 | SK-MES-1 | – | – | – | – | – | 0.952 | 0.875 | 1.01 | 0.959 | 0.443 | 1.33 | 1.18 | 1.17 | 1.54 | 1.17 | 0.924 | 0.924 | 1.12
15 | SW 900 | – | – | – | – | – | 0.7 | 0.549 | 0.553 | 0.496 | 0.232 | – | – | – | – | 0.402 | – | 0.481 | 0.517
16 | NCI-H1299 | 1.07 | 1.13 | 1.19 | 1.25 | 1.04 | – | – | – | – | – | 1.03 | 1.08 | 1.04 | 1.1 | – | – | – | –
17 | NCI-H522 | – | – | – | – | – | 0.578 | 0.547 | 0.542 | 0.523 | 0.57 | – | – | – | – | 0.916 | 1.04 | 1.01 | 1.14
18 | LCLC-103H | 0.932 | 1.13 | 1.09 | 1.02 | 1.18 | 0.525 | 0.52 | 0.473 | 0.523 | 0.384 | – | – | – | – | 0.466 | 0.422 | 0.448 | 0.422
19 | NCI-H1648 | – | – | – | – | – | 0.624 | 0.615 | 0.613 | 0.539 | 0.427 | – | – | – | – | – | 0.716 | – | 0.683
20 | NCI-H1395 | – | – | – | – | – | 0.814 | 0.809 | 0.753 | 0.742 | 0.681 | 1.15 | 1.06 | 1.03 | 0.902 | 0.944 | 0.719 | 0.795 | 0.792
21 | NCI-H1792 | 1.06 | 0.925 | 0.857 | 0.923 | 0.555 | – | – | – | – | – | 1.03 | 0.652 | 0.393 | 0.665 | 1.14 | 0.829 | – | 0.921
22 | IA-LM | 0.931 | 0.689 | 0.54 | 0.551 | 0.165 | – | – | – | – | – | 1.15 | 0.974 | 0.969 | 0.739 | – | – | – | –

From the supplement of paper PMC10307832
